Three compounds from article PMC10564737, “Structure-based design of a phosphotyrosine-masked covalent ligand targeting the E3 ligase SOCS2” (Nature Communications, 2023) can be followed below.

“And” between values parts separate entries of the source, which are not always exact repeats. Equal entries are not always repeated.

For orientation: Kd means the constant that tells how readily two partners part at equilibrium.

Assay [1] deals with T1, HiBiT-SOCS2 fusion in HeLa cells (Homo sapiens, UniProt O14508).
T1 construct: encoding SOCS2 (32–198) in pBiT3.1-N expression vector; expressed in transfected cells; host or cells: HeLa
T1 sequence (O14508 32-198): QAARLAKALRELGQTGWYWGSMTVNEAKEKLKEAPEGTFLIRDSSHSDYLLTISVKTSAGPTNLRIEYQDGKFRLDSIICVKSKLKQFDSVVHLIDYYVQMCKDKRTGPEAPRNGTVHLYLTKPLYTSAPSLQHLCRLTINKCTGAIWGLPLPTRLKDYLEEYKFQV
T1 sequence (Q15370 whole entry, further chain, the tested form may be a part): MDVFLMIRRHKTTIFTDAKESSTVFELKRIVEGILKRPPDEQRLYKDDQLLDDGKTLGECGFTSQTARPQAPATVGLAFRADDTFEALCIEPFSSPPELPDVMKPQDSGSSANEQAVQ
T1 sequence (Q15369 whole entry, further chain, the tested form may be a part): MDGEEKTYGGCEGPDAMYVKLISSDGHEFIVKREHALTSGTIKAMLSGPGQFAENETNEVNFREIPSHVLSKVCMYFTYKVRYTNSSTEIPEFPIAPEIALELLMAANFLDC
Description: Split-NanoLuc CETSA, live-cell mode. Type of assay: cell-based. Set-up: Produrg CETSA screening, raw signal: reference not given here. The conditions noted are these: for Produrg CETSA screening, raw signal: 50uM 20hrs; for ΔT / ΔT, individual replicates n1-n3: Prodrug screen CETSA; for ΔT: live HeLa cells, 50 μM, 20 h, Mean n = 3; for ΔT, individual replicates n1-n3: single replicates. Here is the method: One of the challenges with small-molecule binders displaying on-target activity with recombinant proteins, is to translate their utility to a cellular context. […] One of the advantages of CETSA is that target engagement can be monitored without the need for the development of a cell-permeable tracer molecule.
We utilized CETSA in a live-cell mode to evaluate the efficacy and rank the different prodrugs. We treated live HeLa cells with 50 μM compound (prodrugs) for 20 h and monitored Tagg shift as a proxy for the combo of prodrug permeability and unmasking (Fig. 4d). […] The observation could be because the POM group unmasking requires only esterase unlike the reliance of compounds 21–23 on esterase and phosphoramidase for unmasking an aryloxy phosphoramidate group.
N-terminal HiBiT-SOCS2 fusion was generated by encoding SOCS2 (32–198) in pBiT3.1-N expression vector (Promega). The transfection and target engagement assay were performed by modifying a NanoLuc target engagement protocol (Promega) with some small modifications. Briefly, HiBiT-SOCS2 fusion construct was transfected into HeLa cells using FuGENE HD (Promega) according to the manufacturer’s protocol. HiBiT-SOCS2 fusion construct was diluted into Transfection Carrier DNA (Promega) at a mass ratio of 1:100 or 1:10 for permeabilised and live-cell CETSA respectively. FuGENE HD was added at a ratio of 1:3 (μg DNA: μL FuGENE HD). 1 part (vol) of FuGENE HD complexes thus formed were combined with 20 parts (vol) of HeLa cells suspended at a density of 2 × 10^5 cells/mL, followed by incubation in a humidified, 37 °C + 5% CO2 incubator. After 20 h of incubation HeLa cells were detached and resuspended at a density of 2.5 × 10^5 cells/mL in Opti-MEM media without serum or phenol red but supplemented with protease inhibitor cocktail (Roche). Compounds stocks were added to cell suspension to maintain a final DMSO concentration of 1%. For the permeabilised assay format, 96-well PCR plates (Thermo) were pre-treated with digitonin to have a final well concentration of 50 μg/ml. 50 μl Opti-MEM cell suspension was then aliquoted to each well of the 96-well plate. The plates are then covered with microporous tape sheet (Qiagen) prior to incubation in a humidified, 37 °C + 5% CO2 incubator. Post-incubation we heat the PCR plates in 16-point temperature (split across two runs) curve spanning degrees 40-72 °C temperature span (CFX96 Touch Real-Time PCR Detection System, BioRad). The thermal cycler block was allowed to rise to the designated temperatures prior to placement of the PCR plates into the heating block and heat treatment for 3 min. After incubating the plates at room temperature for over 3 min, 50 μl of the Nano-Glo HiBiT Lytic mix (Promega) was added to each well. Samples were mixed by pipetting and placing the plate on an orbital shaker (600 rpm) for 5 min. 20 μl of the samples (in triplicates) were transferred to a AlphaPlate-384 plate (Perkin Elmer). Luminescence was recorded with GloMax Discover Microplate Reader (Promega). To generate apparent Tagg curves, the data is first converted to percent stabilized by relating the observed luminescence to the luminescence of the lowest temperature (40 °C) for that given sample. Data are then fitted to obtain apparent Tagg values using the Boltzmann Sigmoid equation using Graphpad Prism 9.

In the next assay the target is T2, SBC2 (Homo sapiens, UniProt O14508).
T2 construct: SOCS2 (amino acids 32–198); His6 (N, cleaved yes); made in house; host or cells: E. coli BL21(DE3)
T2 sequence (O14508 32-198): as the sequence (O14508 32-198) above
T2 sequence (Q15370 1-104 partner limits assumed): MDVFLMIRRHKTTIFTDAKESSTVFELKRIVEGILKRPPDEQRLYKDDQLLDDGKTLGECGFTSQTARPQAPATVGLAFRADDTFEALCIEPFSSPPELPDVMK
T2 sequence (Q15369 17-112 partner limits assumed): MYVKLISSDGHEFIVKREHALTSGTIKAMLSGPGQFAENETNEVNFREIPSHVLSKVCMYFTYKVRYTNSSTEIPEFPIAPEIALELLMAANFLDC
Description: Covalent fluorescence polarization (FP) probe displacement assay. Type of assay: binding. The conditions noted are these: SBC2 titration with 10 nM probe; read-out: KD of fluorescent probe measured with FP. From the text:
With the specific covalent modification of Cys111 established, we decided to fully characterize MN551 as a covalent SOCS2 inhibitor. […] (Fig. 2g, h, Supplementary Fig. 9). Due to the covalent nature of the competing inhibitor, a time-dependent reduction in the fraction of protein-bound probe is observed. […] This value illustrates reasonable specificity for a covalent inhibitor, with nonetheless scope for future optimization. In addition to characterizing the kinetic covalency parameters, we have also assessed the stability of the MN551 by monitoring its reactivity (half-life >70 min) with reduced glutathione (GSH) (Supplementary Fig. 10)[35].
To monitor the SBC2-ligand binding kinetics we designed a fluorescein-labeled small-molecule probe - compound 26. The fluorescence polarization (anisotropy) of a threefold serial dilution of 50 µM SBC2 in 10 nM of the probe in 100 mM HEPES pH 7.5, 50 mM NaCl, 0.5 mM TCEP, 2% DMSO was measured to determine the KL (Supplementary Fig. 9A) (BMG Labtech PHERAstar – firmware v1.33). Protein titration and the curves were fitted using GraphPad Prism 9, using one-site fitting models to determine the probe binding constant, KL. Samples were run in triplicate in 384 well plates, using a total volume per well of 16 μL. The bound fraction of the probe is measure using the equation:1 Fb=Af−A/Af−Ab Where,
A time-dependent reduction in probe anisotropy were measured for a 2-fold serial dilution of […] compound MN551 in 10 nM probe +300 μM SBC2. To determine the initial reversible binding affinity, the initial bound fraction of the probe at time = 0, Fbo (the y-intercept in Fb v/s Time plot, Supplementary Fig. 9B) was plotted against MN551 concentration, and the obtained IC50 is then converted to Ki (Supplementary Fig. 9C)[17]. The slope from Fb versus time graph when divided by Fbo gives rate of covalency, kobs. A plot of kobs v/s MN551 concentration using Michaelis–Menten model of GraphPad Prism 9, provides the parameters kinact (maximum potential rate of inactivation) and KI (concentration of MN551 at which kobs = kinact/2) (Supplementary Fig. 9D, E).
The observed first-order rate constant, kobs is related to KI and kinact by the equation:2 kobs=kinactI/KI+I
At [I]«[KI] the above equation is converted to3 […]
The slope from the plot of kobs against concentration of MN551 gives us the covalent efficiency parameter kinact/KI (Supp Fig. 9F)[30],[33].
In general terms: Polarisation of emitted light reports the rotation of a fluorescent probe.

For the compound `COC(=O)[C@H](C)NP(=O)(Oc1ccc(C[C@H](NC(=O)Cc2ccc(F)cc2)C(=O)NCc2cccc(NC(=O)CCl)c2)cc1)Oc1cccc2ccccc12` (stereo partly drawn) [Compound 21], the “Produrg CETSA screening, raw signal” value was 91803 and 91466 and 172287 in assay [1] (n=1, temperature point 4 of 16, temperature not given); 75745 and 107243 and 102225 in assay [1] (n=1, temperature point 5 of 16, temperature not given); 90752 and 132144 and 123125 in assay [1] (n=1, temperature point 6 of 16, temperature not given); 129001 and 137550 and 230259 in assay [1] (n=1, temperature point 7 of 16, temperature not given); 138976 and 169925 and 177765 in assay [1] (n=1, temperature point 8 of 16, temperature not given); 198178 and 192764 and 223087 in assay [1] (n=1, temperature point 9 of 16, temperature not given). The “Produrg CETSA screening, raw signal” value in assay [1] (n=1, temperature point 10 of 16, temperature not given) is 187698 and 251675 and 298741; in assay [1] (n=1, temperature point 11 of 16, temperature not given), 267213 and 290800 and 310548; in assay [1] (n=1, temperature point 12 of 16, temperature not given), 360938 and 373247 and 422856; in assay [1] (n=1, temperature point 13 of 16, temperature not given), 434129 and 461596 and 480477; in assay [1] (n=1, temperature point 14 of 16, temperature not given), 437890 and 471533 and 565224; in assay [1] (n=1, temperature point 15 of 16, temperature not given) it was 465739 and 467737 and 561619. Further, the “Produrg CETSA screening, raw signal” value was 441792 and 461249 and 531619 in assay [1] (n=1, temperature point 16 of 16, temperature not given); 100426 and 115227 and 145975 in assay [1] (n=2, temperature point 1 of 16, temperature not given); 100401 and 85507 and 140649 in assay [1] (n=2, temperature point 2 of 16, temperature not given); 123706 and 103110 and 202648 in assay [1] (n=2, temperature point 3 of 16, temperature not given); 103160 and 69960 and 120366 in assay [1] (n=2, temperature point 4 of 16, temperature not given); 75996 and 86411 and 132074 in assay [1] (n=2, temperature point 5 of 16, temperature not given). Moreover, the “Produrg CETSA screening, raw signal” value in assay [1] (n=2, temperature point 6 of 16, temperature not given) is 123683 and 120963 and 144901; in assay [1] (n=2, temperature point 7 of 16, temperature not given) it was 143611 and 177701 and 227556; in assay [1] (n=2, temperature point 8 of 16, temperature not given), 172997 and 193471 and 214613; in assay [1] (n=2, temperature point 9 of 16, temperature not given), 198669 and 236779 and 246686; in assay [1] (n=2, temperature point 10 of 16, temperature not given), 209139 and 261273 and 295556; in assay [1] (n=2, temperature point 11 of 16, temperature not given), 246514 and 287579 and 323688. Further, the “Produrg CETSA screening, raw signal” value was 393463 and 428191 and 449673 in assay [1] (n=2, temperature point 12 of 16, temperature not given); 441856 and 476194 and 509704 in assay [1] (n=2, temperature point 13 of 16, temperature not given); 497788 and 532165 and 547547 in assay [1] (n=2, temperature point 14 of 16, temperature not given); 523691 and 513819 and 551344 in assay [1] (n=2, temperature point 15 of 16, temperature not given); 478273 and 472552 and 530261 in assay [1] (n=2, temperature point 16 of 16, temperature not given); 20167 in assay [1] (n=3, Temp, 0C 62.3). Besides, the “Produrg CETSA screening, raw signal” value in assay [1] (n=3, Temp, 0C 66.1) is 12666 and 19260 and 24872; in assay [1] (n=3, Temp, 0C 69.3) it was 18005 and 19840 and 24313; in assay [1] (n=3, Temp, 0C 71.1), 19926 and 19187 and 22421; in assay [1] (n=3, Temp, 0C 72), 14765 and 18884 and 20941. Further, the ΔT in assay [1] was found to be 0.60 oC. For the same compound, the “ΔT, individual replicates n1-n3” value in assay [1] was 1.03 oC and -0.02 oC and 0.80 oC.
For the compound `CC(C)OC(=O)[C@H](C)NP(=O)(Oc1ccc(C[C@H](NC(=O)Cc2ccc(F)cc2)C(=O)NCc2cccc(NC(=O)CCl)c2)cc1)Oc1cccc2ccccc12` (stereo partly drawn) [Compound 22], in assay [1], the ΔT was 2.37 oC; the “ΔT, individual replicates n1-n3” value was 2.11 oC and 3.40 oC and 1.59 oC.
Take `Cc1cc(CNC(=O)[C@H](Cc2ccc(OP(=O)(O)O)cc2)NC(=O)Cc2ccc(F)cc2OCCNC(=S)Nc2ccc3c(c2)C(=O)OC32c3ccc(O)cc3Oc3cc(O)ccc32)ccc1Cl` [Compound 26]: the Kd at SBC2 was found to be 77.6 nM.
